According to ChEMBL document CHEMBL3352180, “From chemical tools to clinical medicines: nonimmunosuppressive cyclophilin inhibitors derived from the cyclosporin and sanglifehrin scaffolds” (J Med Chem, 2014):

Columns and labels:
[1] = tested on: Hepatitis C virus; assay: Antiviral activity against HCV assessed as inhibition of viral replication at 1 uM by replicon based assay; type: functional, Hepacivirus hominis
[2] = tested on: Lymphocyte; assay: cells
Description: Immunosuppressive activity in lymphocytes (unknown origin) by mixed lymphocyte reaction assay

[3] = species on record: Homo sapiens; assay: Inhibition of Pgp (unknown origin) assessed as reduction in pump efflux activity
[4] = molecular target: Peptidyl-prolyl cis-trans isomerase A (Homo sapiens, UniProt P62937)
Peptidyl-prolyl cis-trans isomerase A, sequence (P62937 whole entry): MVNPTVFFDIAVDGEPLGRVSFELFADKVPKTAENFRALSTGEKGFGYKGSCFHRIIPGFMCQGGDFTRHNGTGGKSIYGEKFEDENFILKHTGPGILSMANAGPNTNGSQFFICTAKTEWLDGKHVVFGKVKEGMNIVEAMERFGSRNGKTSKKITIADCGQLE
Description: Binding affinity to cyclophilin A (unknown origin)

[5] = molecular target: Peptidyl-prolyl cis-trans isomerase F, mitochondrial (Homo sapiens, UniProt P30405)
Peptidyl-prolyl cis-trans isomerase F, mitochondrial, sequence (P30405 whole entry): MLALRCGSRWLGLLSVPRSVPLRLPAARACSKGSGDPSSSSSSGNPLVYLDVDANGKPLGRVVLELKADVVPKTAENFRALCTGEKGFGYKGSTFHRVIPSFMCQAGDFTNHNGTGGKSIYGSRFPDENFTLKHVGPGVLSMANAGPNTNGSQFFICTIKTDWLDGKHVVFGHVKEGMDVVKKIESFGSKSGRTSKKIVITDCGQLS
Description: Binding affinity to cyclophilin D (unknown origin)

[6] = tested on: Hepatitis C virus; assay: microbe, parasite or virus in culture
Description: Antiviral activity against HCV by replicon based assay

## CC(C)[C@@H]1NC(=O)C([C@H](C)O)/C=C/c2ccc3ccc(nc3c2)[C@@H](C)OC(=O)[C@@H]2CCCN(N2)C(=O)[C@H](C)NC1=O (some centres not stated)
[1]
  inhibition at 1 µM: 99%

## C/C=C/C[C@@H](C)[C@@H](O)[C@H]1C(=O)N[C@@H](CC)C(=O)N(C)[C@@H](SCCCN2CCOCC2)C(=O)N(C)[C@@H](CC(C)C)C(=O)N[C@@H](C(C)C)C(=O)N(C)[C@@H](CC(C)C)C(=O)N[C@@H](C)C(=O)N[C@H](C)C(=O)N(C)[C@@H](CC(C)C)C(=O)N(C)[C@@H](CC(C)C)C(=O)N(C)[C@@H](C(C)C)C(=O)N1C
[2]
  EC50: 3000 nM

## C/C=C/C[C@@H](C)[C@@H](O)[C@H]1C(=O)N[C@@H](CC)C(=O)N(C)[C@H](SCCN(C)C)C(=O)N(C)[C@@H](CC(C)(C)O)C(=O)N[C@@H](C(C)C)C(=O)N(C)[C@@H](CC(C)C)C(=O)N[C@@H](C)C(=O)N[C@H](C)C(=O)N(C)[C@@H](CC(C)C)C(=O)N(C)[C@@H](CC(C)C)C(=O)N(C)[C@@H](C(C)C)C(=O)N1C
[3]
  INH: 15 µM

## C/C=C/C[C@@H](C)[C@@H](O)[C@H]1C(=O)N[C@@H](CC)C(=O)N(C)[C@@H](C)C(=O)N(C)[C@@H](CC(C)C)C(=O)N(CC=C(C)C)[C@@H](C(C)C)C(=O)N(C)[C@@H](CC(C)C)C(=O)N[C@@H](C)C(=O)N[C@H](C)C(=O)N(C)[C@@H](CC(C)C)C(=O)N(C)[C@@H](CC(C)C)C(=O)N(C)[C@@H](C(C)C)C(=O)N1C
[4]
  Kd: < 60 nM
[5]
  Kd: < 60 nM
[6]
  EC50: < 200 nM

## CC(C)[C@@H]1OC(=O)[C@]2(/C=C/c3ccc4ccc(nc4c3)[C@@H](C)OC(=O)[C@@H]3CCCN(N3)C(=O)[C@H](C)NC1=O)CC[C@H](O)CC2
[1]
  inhibition at 1 µM: 99%
